Experimental data taken from ChEMBL document CHEMBL6153050, “Repurposing FDA-approved drugs to target G-quadruplexes in breast cancer” (Eur J Med Chem, 2025).
Calls of active or inactive are those of the source. No cut-off for these calls is given here.

How the values were obtained:
[1] = test system: Quadruplex DNA; settings: time 10.0 min
[2] = test system: Quadruplex RNA; settings: time 10.0 min
[3] = test system: MCF7; experiment: Cytotoxicity against human MCF7 cells assessed as reduction in cell viability at 0.625 to 20 uM incubated for 6 days by SRB assay; type: functional, cell-based; settings: dose 0.625-20 µM, time 6.0 day
[4] = test system: Quadruplex RNA; settings: time 10.0 min; remark: listed apart in the source
[5] = test system: Quadruplex DNA; settings: time 10.0 min; remark: listed apart in the source
[6] = test system: Quadruplex DNA; settings: time 10.0 min; remark: listed apart in the source
[7] = test system: Quadruplex DNA; settings: time 10.0 min; remark: listed apart in the source
[8] = test system: SK-BR-3; experiment: Cytotoxicity against human SK-BR-3 cells assessed as reduction in cell viability at 0.625 to 20 uM incubated for 6 days by SRB assay; type: functional, cell-based; settings: dose 0.625-20 µM, time 6.0 day
[9] = test system: MDA-MB-231; experiment: Induction of DNA damage in human MDA-MB-231 cells assessed as increase in gamma-H2AX level at IC25 concentration incubated for 6 days by flow cytometric analysis; type: functional, cell-based; settings: time 6.0 day
[10] = test system: Quadruplex DNA; experiment: Stabilization of G4 quadruplex DNA (unknown origin) in human MCF7 cells at IC25 concentration incubated for 6 days by flow cytometric analysis; type: cell-based; settings: time 6.0 day
[11] = test system: Quadruplex DNA; experiment: Binding affinity to c-Myc G4 quadruplex DNA (TGAGGGTGGGTAGGGTGGGTAA) (unknown origin) assessed as change in entropy by ITC analysis; type: nucleic-acid assay
[12] = test system: MCF7; experiment: Downregulation of c-MYC protein expression in human MCF7 cells at IC50 concentration incubated for 6 days by Western blotting analysis; type: functional, cell-based; settings: time 6.0 day
[13] = test system: Quadruplex DNA; experiment: Binding affinity to HER2 G4 quadruplex DNA (GGAGAAGGAGGAGGTGGAGGAGGAGGG) (unknown origin) assessed as Gibbs free energy by ITC analysis; type: nucleic-acid assay
[14] = test system: Quadruplex DNA; experiment: Binding affinity to HER2 G4 quadruplex DNA (GGAGAAGGAGGAGGTGGAGGAGGAGGG) (unknown origin) assessed as equilibrium binding constant (Ka) by ITC analysis; type: nucleic-acid assay
[15] = test system: MDA-MB-231; experiment: Induction of DNA damage in human MDA-MB-231 cells assessed as increase in gamma-H2AX level incubated for 6 days by flow cytometric analysis; type: functional, cell-based; settings: time 6.0 day
[16] = test system: MCF7; experiment: Induction of DNA damage in human MCF7 cells assessed as increase in gamma-H2AX level at IC50 concentration incubated for 6 days by flow cytometric analysis; type: functional, cell-based; settings: time 6.0 day
[17] = test system: SK-BR-3; experiment: Induction of DNA damage in human SK-BR-3 cells assessed as increase in gamma-H2AX level at IC50 concentration incubated for 6 days by flow cytometric analysis; type: functional, cell-based; settings: time 6.0 day
[18] = test system: Quadruplex DNA; experiment: Stabilization of G4 quadruplex DNA (unknown origin) in human SK-BR-3 cells assessed as increase in G4 motif at IC50 concentration incubated for 6 days by flow cytometric analysis; type: cell-based; settings: time 6.0 day
[19] = test system: SK-BR-3; experiment: Cytotoxicity against human SK-BR-3 cells assessed as reduction in cell viability incubated for 6 days by SRB assay; type: functional, cell-based; settings: Homo sapiens, SK-BR-3, 144 h
[20] = test system: MCF7; experiment: Induction of DNA damage in human MCF7 cells assessed as increase in gamma-H2AX level at IC25 concentration incubated for 6 days by flow cytometric analysis; type: functional, cell-based; settings: time 6.0 day
[21] = test system: Quadruplex DNA; experiment: Binding affinity to c-Myc G4 quadruplex DNA (TGAGGGTGGGTAGGGTGGGTAA) (unknown origin) assessed as binding enthalpy by ITC analysis; type: nucleic-acid assay
[22] = test system: SK-BR-3; experiment: Induction of DNA damage in human SK-BR-3 cells assessed as increase in gamma-H2AX level at IC25 concentration incubated for 6 days by flow cytometric analysis; type: functional, cell-based; settings: time 6.0 day
[23] = test system: Quadruplex DNA; experiment: Binding affinity to c-Myc G4 quadruplex DNA (TGAGGGTGGGTAGGGTGGGTAA) (unknown origin) assessed as equilibrium binding constant (Ka) by ITC analysis; type: nucleic-acid assay
[24] = test system: MDA-MB-231; experiment: Induction of DNA damage in human MDA-MB-231 cells assessed as increase in gamma-H2AX level at IC50 concentration incubated for 6 days by flow cytometric analysis; type: functional, cell-based; settings: time 6.0 day
[25] = test system: MDA-MB-231; experiment: Induction of cell cycle arrest in human MDA-MB-231 cells assessed as reduction in G1 phase at IC50 concentration incubated for 6 days by PI staining based flow cytometric analysis; type: functional; settings: time 6.0 day
[26] = test system: Quadruplex DNA; experiment: Stabilization of G4 quadruplex DNA (unknown origin) in human MCF7 cells at IC50 concentration incubated for 6 days by flow cytometric analysis; type: cell-based; settings: time 6.0 day
[27] = test system: Quadruplex DNA; experiment: Binding affinity to c-Myc G4 quadruplex DNA (TGAGGGTGGGTAGGGTGGGTAA) (unknown origin) assessed as Gibbs free energy by ITC analysis; type: nucleic-acid assay
[28] = test system: MCF7; experiment: Induction of cell cycle arrest in human MCF7 cells assessed as reduction in G1 phase at IC25 concentration incubated for 6 days by PI staining based flow cytometric analysis; type: functional; settings: time 6.0 day
[29] = test system: SK-BR-3; experiment: Induction of cell cycle arrest in human SK-BR-3 cells assessed as accumulation of cells at G2/M phase at IC25 concentration incubated for 6 days by PI staining based flow cytometric analysis; type: functional; settings: time 6.0 day
[30] = test system: MCF7; experiment: Induction of cell cycle arrest in human MCF7 cells assessed as reduction in G1 phase at IC50 concentration incubated for 6 days by PI staining based flow cytometric analysis; type: functional; settings: time 6.0 day
[31] = test system: MDA-MB-231; experiment: Cytotoxicity against human MDA-MB-231 cells assessed as reduction in cell viability incubated for 6 days by SRB assay; type: functional, cell-based; settings: Homo sapiens, MDA-MB-231, 144 h
[32] = test system: Quadruplex DNA; experiment: Binding affinity to HER2 G4 quadruplex DNA (GGAGAAGGAGGAGGTGGAGGAGGAGGG) (unknown origin) assessed as binding enthalpy by ITC analysis; type: nucleic-acid assay
[33] = test system: Quadruplex DNA; experiment: Binding affinity to HER2 G4 quadruplex DNA (GGAGAAGGAGGAGGTGGAGGAGGAGGG) (unknown origin) assessed as change in entropy by ITC analysis; type: nucleic-acid assay
[34] = test system: SK-BR-3; experiment: Induction of cell cycle arrest in human SK-BR-3 cells assessed as accumulation of cells at G2/M phase at IC50 concentration incubated for 6 days by PI staining based flow cytometric analysis; type: functional; settings: time 6.0 day
[35] = test system: MDA-MB-231; experiment: Induction of cell cycle arrest in human MDA-MB-231 cells assessed as reduction in G1 phase at IC25 concentration incubated for 6 days by PI staining based flow cytometric analysis; type: functional; settings: time 6.0 day
[36] = test system: MCF7; experiment: Cytotoxicity against human MCF7 cells assessed as reduction in cell viability incubated for 6 days by SRB assay; type: functional, cell-based; settings: Homo sapiens, MCF7, 144 h

Compound: Cc1c(-c2ccccc2)oc2c(C(=O)OCCN3CCCCC3)cccc2c1=O
- deltaTm1/2 [1]: 4.9 °C
- deltaTm1/2 [2]: 5.6 °C
- Activity [3]: Active
- deltaTm1/2 [4]: 8.5 °C
- deltaTm1/2 [5]: 4.5 °C
- deltaTm1/2 [6]: 9.8 °C
- deltaTm1/2 [7]: -2.6 °C
- Activity [8]: Active

Compound: CCc1c2c(nc3ccc(OC(=O)N4CCC(N5CCCCC5)CC4)cc13)-c1cc3c(c(=O)n1C2)COC(=O)[C@]3(O)CC [IRINOTECAN]
- deltaTm1/2 [1]: 14.8 °C
- Activity [9]: Active
- Activity [10]: Active
- TdeltaS [11]: 5.21 kcal/mol
- deltaTm1/2 [2]: 6.6 °C
- Activity [12]: Active
- deltaG [13]: -7.29 kcal/mol
- Ka [14]: 2.2 10^5/M
- Activity [15]: Dose-dependent-effect
- Activity [16]: Active; Slightly Lower Dna Damage Observed
- Activity [17]: Active; Slightly Lower Dna Damage Observed
- Activity [18]: Active
- IC50 [19]: 500 nM
- IC25 ([19]; time 6 day, read-out: IC25): 360 nM
- Activity [20]: Active; Slightly Lower Dna Damage Observed
- deltaTm1/2 [4]: > 20 °C
- deltaH [21]: -1.86 kcal/mol
- deltaTm1/2 [5]: 19 °C
- Activity [22]: Active; Slightly Lower Dna Damage Observed
- deltaTm1/2 [6]: 19.6 °C
- Ka [23]: 1.5 10^5/M
- Activity [24]: Active
- Activity [25]: Active
- Activity [26]: Active
- deltaG [27]: -7.07 kcal/mol
- Activity [28]: Active
- deltaTm1/2 [7]: 8.7 °C
- Activity [29]: Active
- Activity [30]: Active
- IC50 [31]: 1600 nM
- IC25 ([31]; time 6 day, read-out: IC25): 1100 nM
- deltaH [32]: -5.4 kcal/mol
- TdeltaS [33]: 1.89 kcal/mol
- Activity [34]: Active
- Activity [35]: Active
- IC50 [36]: 480 nM
- IC25 ([36]; time 6 day, read-out: IC25): 280 nM
